Experimental data from PubChem BioAssay AID330 (DTP/NCI, 2004).
Values joined by “and” are separate entries in the source; they are usually repeats but may differ in a detail not shown here. Identical values can stand only once. Inconclusive results and toxic doses are left out. How the source made its calls: active means survival T/C of 150% or more; inactive means T/C below 125% in these data.

System: P388 leukemia ip, CD2F1 mice, survival T/C
Experiment: NCI In Vivo Anticancer Drug Screen. Data for tumor model P388 Leukemia (intraperitoneal) in CD2F1 (CDF1) mice
Conditions: endpoint: median survival time, higher = longer survival
Procedure, shortened: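 Mice carrying the transplanted tumor received test compound or vehicle. Survival was recorded in each group, and the value is the treated-group measurement divided by that of the vehicle-treated control group.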

[1] = dose: 50.0 mg/kg/injection, schedule: Q01DX009 (ip), vehicle: Klucel (hydroxypropylcellulose) (HPC)
[2] = dose: 100.0 mg/kg/injection, schedule: Q01DX009 (ip), vehicle: Klucel (hydroxypropylcellulose) (HPC)
[3] = dose: 200.0 mg/kg/injection, schedule: Q01DX009 (ip), vehicle: Klucel (hydroxypropylcellulose) (HPC)
[4] = dose: 200.0 mg/kg/injection, schedule: Q01DX001 (ip), vehicle: saline with Tween-80
[5] = dose: 400.0 mg/kg/injection, schedule: Q01DX001 (ip), vehicle: saline with Tween-80
[6] = dose: 50.0 mg/kg/injection, schedule: Q01DX005 (ip), vehicle: Klucel (hydroxypropylcellulose) (HPC)
[7] = dose: 100.0 mg/kg/injection, schedule: Q01DX005 (ip), vehicle: Klucel (hydroxypropylcellulose) (HPC)
[8] = dose: 200.0 mg/kg/injection, schedule: Q01DX005 (ip), vehicle: Klucel (hydroxypropylcellulose) (HPC)
[9] = dose: 15.0 mg/kg/injection, schedule: Q01DX005 (ip), vehicle: saline with Tween-80
[10] = dose: 100.0 mg/kg/injection, schedule: Q04DX003 (ip), vehicle: saline with Tween-80
[11] = dose: 200.0 mg/kg/injection, schedule: Q04DX003 (ip), vehicle: saline with Tween-80
[12] = dose: 25.0 mg/kg/injection, schedule: Q01DX009 (ip), vehicle: saline with Tween-80
[13] = dose: 50.0 mg/kg/injection, schedule: Q01DX009 (ip), vehicle: saline with Tween-80
[14] = dose: 100.0 mg/kg/injection, schedule: Q01DX009 (ip), vehicle: saline with Tween-80
[15] = dose: 200.0 mg/kg/injection, schedule: Q01DX009 (ip), vehicle: saline with Tween-80
[16] = dose: 400.0 mg/kg/injection, schedule: Q01DX009 (ip), vehicle: saline with Tween-80
[17] = dose: 60.0 mg/kg/injection, schedule: Q01DX005 (ip), vehicle: saline with Tween-80
[18] = dose: 120.0 mg/kg/injection, schedule: Q01DX005 (ip), vehicle: saline with Tween-80
[19] = dose: 240.0 mg/kg/injection, schedule: Q01DX005 (ip), vehicle: saline with Tween-80

Measured: T/C

Cc1cccc2c1CN1CC(=O)NC1=N2
inactive: [1] 103 % of control | [2] 97 % of control | [3] 86 % of control

COc1nc(NC2OC(COC(C)=O)C(OC(C)=O)C(OC(C)=O)C2OC(C)=O)c2c(O)coc2n1 (centres undefined)
inactive: dose: 100.0 mg/kg/injection, schedule: Q01DX001 (ip), vehicle: saline with Tween-80 115 % of control | [4] 106 % of control | [5] 92 % of control

Cc1cc(/C=C2/OC(=O)c3ccccc32)cc(C)c1O
inactive: dose: 100.0 mg/kg/injection, schedule: Q04DX002 (ip), vehicle: saline 94 % of control | dose: 200.0 mg/kg/injection, schedule: Q04DX002 (ip), vehicle: saline 97 % of control | dose: 400.0 mg/kg/injection, schedule: Q04DX002 (ip), vehicle: saline 97 % of control

Cc1nc(Cl)c2[nH]c(Cl)nc2n1
inactive: [6] 102 % of control | [7] 102 % of control | [8] 100 % of control

O=C1C=C[C@H](O)[C@@]2(CO)O[C@@H]12
inactive: dose: 1.25 mg/kg/injection, schedule: Q04DX002 (ip), vehicle: saline 103 % of control | dose: 2.5 mg/kg/injection, schedule: Q04DX002 (ip), vehicle: saline with Tween-80 114 % of control | dose: 2.5 mg/kg/injection, schedule: Q04DX002 (ip), vehicle: saline 104 % of control

N#CC(=O)Nc1cc(Cl)cc(Cl)c1
inactive: dose: 7.5 mg/kg/injection, schedule: Q01DX005 (ip), vehicle: saline with Tween-80 100 % of control | [9] 102 % of control

C/C(=N\NC(=S)NC12CC3CC(CC(C3)C1)C2)c1ccccn1
inactive: [10] 113 % of control | [11] 104 % of control

Cc1ccc(NC(=O)NCc2ccncc2)cc1NC(=O)NCc1ccncc1
inactive: [1] 112 % of control | [2] 110 % of control

CCOC(=O)c1nc(N(C)C)oc(=O)c1C
inactive: dose: 60.0 mg/kg/injection, schedule: Q01DX005 (ip), vehicle: saline 101 % of control | dose: 120.0 mg/kg/injection, schedule: Q01DX005 (ip), vehicle: saline 97 % of control | dose: 240.0 mg/kg/injection, schedule: Q01DX005 (ip), vehicle: saline 100 % of control

COc1ccc(C(=O)CC(C(=O)O)c2ccc3c(c2)OCO3)cc1OC (centres undefined)
inactive: [10] 100 % of control | [11] 90 % of control | dose: 400.0 mg/kg/injection, schedule: Q04DX003 (ip), vehicle: saline with Tween-80 90 % of control

CC(=O)[C@]1(O)Cc2c(O)c3c(c(O)c2[C@@H](OC2CC(N)C(O)C(C)O2)C1)C(=O)c1c(OCC(C)C)cccc1C3=O (some centres undefined)
inactive: dose: 3.13 mg/kg/injection, schedule: Q04DX003 (ip), vehicle: water 107 % of control and 110 % of control | dose: 6.25 mg/kg/injection, schedule: Q04DX003 (ip), vehicle: water 105 % of control and 119 % of control | dose: 12.5 mg/kg/injection, schedule: Q04DX003 (ip), vehicle: water 101 % of control | dose: 25.0 mg/kg/injection, schedule: Q04DX003 (ip), vehicle: water 121 % of control | dose: 50.0 mg/kg/injection, schedule: Q04DX003 (ip), vehicle: water 101 % of control and 89 % of control

CC1(C)COC(=O)C(C)(C2(C)NC(C)(C)COC2=O)N1 (centres undefined)
inactive: [12] 99 % of control | [13] 102 % of control | [14] 101 % of control | [4] 95 % of control | [15] 114 % of control | [5] 97 % of control | [16] 106 % of control | dose: 800.0 mg/kg/injection, schedule: Q01DX001 (ip), vehicle: saline with Tween-80 101 % of control

NC(=S)c1cn(C2OC(CO)C(O)C2O)c2ncnc(N)c12 (centres undefined)
inactive: dose: 0.31 mg/kg/injection, schedule: Q01DX009 (ip), vehicle: saline 100 % of control | dose: 0.63 mg/kg/injection, schedule: Q01DX009 (ip), vehicle: saline 109 % of control | dose: 1.4 mg/kg/injection, schedule: Q01DX009 (ip), vehicle: saline with Tween-80 119 % of control | dose: 5.0 mg/kg/injection, schedule: Q01DX009 (ip), vehicle: saline with Tween-80 86 % of control

O=C(Nc1ncn[nH]1)C(=O)Nc1ncn[nH]1
inactive: dose: 6.25 mg/kg/injection, schedule: Q01DX009 (ip), vehicle: saline with Tween-80 92 % of control | dose: 12.5 mg/kg/injection, schedule: Q01DX009 (ip), vehicle: saline with Tween-80 94 % of control | [12] 95 % of control

O=C(Nc1cc(Cl)cc(Cl)c1)OCCCl
inactive: [17] 100 % of control | [18] 98 % of control | [19] 91 % of control

CC(=O)Oc1ccc([N+](=O)[O-])cc1[N+](=O)[O-]
inactive: dose: 6.25 mg/kg/injection, schedule: Q04DX002 (ip), vehicle: Klucel (hydroxypropylcellulose) (HPC) 97 % of control | dose: 12.5 mg/kg/injection, schedule: Q04DX002 (ip), vehicle: Klucel (hydroxypropylcellulose) (HPC) 103 % of control | dose: 25.0 mg/kg/injection, schedule: Q04DX002 (ip), vehicle: Klucel (hydroxypropylcellulose) (HPC) 100 % of control

CN(CC(N)=O)C(=O)c1cnc2ccccc2c1
inactive: [17] 98 % of control | [18] 101 % of control | [19] 99 % of control

CC(NC(=O)OCc1ccccc1)C(=O)Oc1cc(Cl)c(Cl)cc1Cl (centres undefined)
inactive: [13] 109 % of control | [14] 104 % of control | [15] 107 % of control

CCCCC(NC(=O)OC(C)(C)C)C(=O)O (centres undefined)
inactive: [6] 98 % of control | [7] 99 % of control | [8] 104 % of control

CC1CCCCN1C(=S)Nc1ccc(S(=O)(=O)N2CCCCC2)cc1 (centres undefined)
inactive: [1] 94 % of control | [2] 101 % of control | [3] 92 % of control

CCN(CC)CCCC(C)N(C)CC(C)CCC1=C(C)CCCC1(C)C (centres undefined)
inactive: dose: 12.5 mg/kg/injection, schedule: Q01DX005 (ip), vehicle: saline 97 % of control | dose: 25.0 mg/kg/injection, schedule: Q01DX005 (ip), vehicle: saline 101 % of control | dose: 50.0 mg/kg/injection, schedule: Q01DX005 (ip), vehicle: saline 104 % of control

OC1CN(c2ccccc2)CC1O (centres undefined)
inactive: [6] 105 % of control | [7] 96 % of control | [8] 97 % of control

COc1cc(C2c3c(oc4ccccc4c3=O)Oc3oc4ccccc4c(=O)c32)cc(OC)c1O
inactive: [9] 92 % of control | dose: 30.0 mg/kg/injection, schedule: Q01DX005 (ip), vehicle: saline with Tween-80 96 % of control | [17] 92 % of control | [18] 95 % of control | [19] 98 % of control

Oc1ccccc1C=Nc1ccccc1N=Cc1ccccc1O.[Cu]
inactive: [6] 99 % of control | [7] 97 % of control | [8] 90 % of control

CCOC(=O)c1ccc(NC(CCC(C#N)(C#N)CCC(=NC(C)(C)C)Nc2ccc(C(=O)OCC)cc2)=NC(C)(C)C)cc1
inactive: [13] 95 % of control | [14] 95 % of control | [15] 96 % of control

CCCCOC(=O)OOC(C)(C)C
inactive: [13] 110 % of control | [14] 110 % of control | [15] 110 % of control

CN1C(=O)/C(=C2\SC(=O)N(CN3CCOCC3)C2=O)c2ccccc21
inactive: [6] 106 % of control | [7] 99 % of control | [8] 104 % of control

O=C1OC(c2ccc(O)cc2)(c2ccc(O)cc2)c2ccccc21
inactive: dose: 100.0 mg/kg/injection, schedule: Q04DX002 (ip), vehicle: saline with Tween-80 99 % of control | dose: 200.0 mg/kg/injection, schedule: Q04DX002 (ip), vehicle: saline with Tween-80 103 % of control | dose: 400.0 mg/kg/injection, schedule: Q04DX002 (ip), vehicle: saline with Tween-80 93 % of control

CC1(C)N=C(N)N=C(N)N1c1ccc(S(C)(=O)=O)cc1
inactive: dose: 12.5 mg/kg/injection, schedule: Q01DX005 (ip), vehicle: saline with Tween-80 103 % of control | dose: 25.0 mg/kg/injection, schedule: Q01DX005 (ip), vehicle: saline with Tween-80 101 % of control | dose: 50.0 mg/kg/injection, schedule: Q01DX005 (ip), vehicle: saline with Tween-80 100 % of control and 106 % of control

COC1C(/C=[N+](\[O-])C2C(C3COC(C)(C)O3)OC3OC(C)(C)OC32)OC2OC(C)(C)OC21 (centres undefined)
inactive: [1] 100 % of control | [2] 103 % of control | [3] 105 % of control

COC1=C(C(C2=C(OC)CC(C)(C)CC2=O)c2ccc3c(c2)OCO3)C(=O)CC(C)(C)C1
inactive: [17] 102 % of control | [18] 111 % of control | [19] 101 % of control

Cc1ccc(S(=O)(=O)Nc2cc(C)cc(CCNC=O)c2C)cc1
inactive: [13] 104 % of control | [14] 94 % of control | [15] 99 % of control | [16] 94 % of control
